Laboratory results from patent US9815878B2, “Use of PEDF-derived polypeptides for preventing and/or ameliorating skin aging” (MacKay Memorial Hospital, priority 2012, dated 2017).

Experiments:
[1] = test system: type I collagen (COL1A1); experiment: Type I collagen (COL1A1) level in mouse skin by immunoblot; type: in vivo, C57BL/6 mice; conditions: ointment plus microneedle (MN), twice a week for two weeks, day 14; normalized with vehicle/CT
Experimental: (§1) Skin tissues were homogenized in ice-cold lysis buffer containing 20 mM HEPES (pH 7.4), 150 mM NaCl, 1% SDS, 1 mM ethylenediamine tetraacetic acid (EDTA), 5 mM phenylmethanesulfonyl fluoride (PMSF), and 1 mM dithiothreitol (DTT), 1% Triton X-100, with freshly added protease inhibitor cocktail (Roche, Indianapolis, Ind.). Homogenates were then centrifuged at 12,000 g for 30 minutes at 4° C., and supernatants were then collected and stored at −70° C. Protein contents in lysates were determined using the Bradford assay. Whole cell lysates were prepared using the above lysis buffer. Aliquots of the lysates were then resolved on a SDS-PAGE and then electrotransferred to polyvinylidene difluoride (PVDF) membranes (Millipore, Bedford, Mass., USA) and processed for immunoblot analysis.
Antibodies used in the immunoblot study included anti-type I collagen 1A1 antibody (1:1000 dilution), anti-MMP-1 antibody (1:500 dilution) and anti-β-actin antibody (1:10000 dilution). Proteins of interest were detected using the appropriate IgG-HRP secondary antibody and ECL reagent (Amersham, Arlington Heights, Ill., USA). X-ray films were scanned on a Model GS-700 Imaging Densitometer (Bio-Rad Laboratories, Hercules, Calif.) and analyzed using Labworks 4.0 software. For quantification, blots from at least three independent experiments were used. […]

[2] = test system: dermal fibroblasts; experiment: Vimentin-positive fibroblast count in dermis of treated mice; type: in vivo, C57BL/6 mice; conditions: ointment plus microneedle (MN), specimens from Example 2
Experimental: Collagen is the major matrix component of the dermis and forms a tough fiber framework to provide the elastic property of the skin. This working example investigated whether the present PEDF peptides increase dermal collage content. Mice depilated as described in Example 1 were randomly assigned to several experimental groups and treated as follows. For each mouse, one side of the dorsal midline (about 2 cm^2) received 50 μl of ointment (the 29-mer, 20-mer, or DMSO-containing ointment) and a subsequent microneedle treatment; while the other side of the dorsal midline (about 2 cm^2) received 50 μl of the same ointment without the microneedle treatment. The treatment was given twice a week for two weeks, and the skin was left uncovered and harvested 14 days after the first treatment. Skin specimens were stained with Masson's trichrome stain (blue) for dermal collagen; representative images are provided in FIG. 2. The stained collagen area in the skin was quantified as taught above in the “Materials and Methods” section, and the results were normalized with the area of Vehicle/MN. […]
Specimens from Example 2, above, were also stained for the fibroblast marker, vimentin, and the vimentin-positive cells were counted under microscope.

[3] = test system: MMP-1; experiment: UVB-induced MMP-1 protein expression in WS-1 cells, western blotting; type: cell-based, human; conditions: for MMP-1 Expression Level (%): Vehicle/UVB set to 100%; for MMP-1 protein level relative to vehicle/UVB group: pre-incubation with peptide
Experimental: Human skin fibroblast WS-1 cell line was obtained from Food Industry Research and Development Institute (Hsin-Chu, Taiwan). The WS-1 cells were maintained in a 37° C., 5% CO2 humidified incubator as monolayers in culture flasks. They were grown in 10% FBS-DMEM supplemented with 2 mM L-glutamine, 0.1 mM non-essential amino acids, 1% penicillin/streptomycin. For passage, near-confluent cells were sub-cultured by 0.25% trypsin/EDTA.
as §1
Antibodies used in the immunoblot study included anti-type I collagen 1A1 antibody (1:1000 dilution), anti-MMP-1 antibody (1:500 dilution) and anti-β-actin antibody (1:10000 dilution). Proteins of interest were detected using the appropriate IgG-HRP secondary antibody and ECL reagent (Amersham, Arlington Heights, Ill., USA). X-ray films were scanned on a Model GS-700 Imaging Densitometer (Bio-Rad Laboratories, Hercules, Calif.) and analyzed using Labworks 4.0 software. For quantification, blots from at least three independent experiments were used.
WS-1 were seeded on a six-well plate at a density of 1×10^5 cells per well and grown in the 10% FBS-DMEM growth medium for 24 hours and then incubated with 1% FBS-DMEM supplemented with or without 100 nM PEDF peptide for further 24 hours. The cells were washed twice with phosphate buffered saline (PBS) and exposed to UVB radiation covered with PBS. The UVB treatment was conducted in a cell culture hood by using a UVB lamp (model XL-1000B, Spectrolinker™ Inc.) at a final dose of 15 mJ/cm^2 for about 100 seconds. Cell viability was assayed using trapan blue exclusion assay (>95%). After UVB irradiation, PBS was replaced with 1% FBS-DMEM with or without PEDF peptide for further 48 hours and then protein extracts were assayed by western blotting for the expression of MMP-1 protein. Cells that were not subjected to UVB irradiation were used as control (normal). The expression level of MMP-1 was normalized with the expression level in the Vehicle/UVB group (set to 100%), and quantitative results are summarized in Table 6.

[4] = test system: dermal collagen; experiment: Collagen content of UVB-damaged mouse skin, Masson's trichrome staining; type: in vivo, nude mice; conditions: 8-week UVB, then transdermal delivery for 2 weeks
Experimental: General histology was performed using hematoxylin and eosin (H&E) dye. Deparaffinized skin tissue sections were stained using Masson's Trichrome (Sigma-Aldrich, St. Louis, Mo.) according to the manufacturer's instructions; sections was examined and photographed by a Nikon Eclipse 80i light microscope (original magnification, ×400). For semi-quantitative analysis of collagen area, 10 fields from each slide were randomly selected under the light microscope, and the blue-stained area per entire area of the cross section (mm^2/mm^2) was measured using the Image-Pro Plus 4.5.1 system (Media Cybernetics).
Six-week-old female nude mice (BALB/cAnN.Cg-Foxn1nu/CrlNarl) were irradiated with ultraviolet B (UVB) on the back 5 times a week for an eight-week period using a bank of five UVB lamps (model XL-1000B, Spectrolinker™ apparatus; emission peak: 312 nm), placed about 20 cm above the backs of the animals. During the UVB exposure, the mice were allowed to move freely within the cage. […] The level of BrdU- and vimentin-double positive cells was expressed as the percentage of BrdU- and vimentin-double positive cells per total vimentin-positive cells (the BrdU/Vimentin Labeling Index). […]

[5] = 100 nM peptide 24 h before and 48 h after UVB 15 mJ/cm^2

| Substance | COL1A1 Level (fold) [1] | Vimentin+ Cells per mm^2 [2] | MMP-1 Expression Level (%) [3, 5] | MMP-1 Expression Level (%) ([3]; 100 nM peptide, no UVB irradiation) | MMP-1 protein level relative to vehicle/UVB group [3] | collagen level in the dermis versus UVB/vehicle group (Masson's trichrome, FIG. 5) [4] |
| --- | --- | --- | --- | --- | --- | --- |
| Ac-SLGAEQRTESIIHRALYYDLISSPDIHGT-NH2 [29-mer] | 1.7 ± 0.24 fold | 1688 ± 197 Cells per mm^2 | 42 ± 3.3 % | 5 ± 2.3% | about half | significantly enhanced |
| SLGAEQRTESIIHRALYYDL [20-mer, synthetic peptide corresponding to residues 93-112 of human PEDF] | 1.8 ± 0.20 fold | 1745 ± 143 Cells per mm^2 | 50 ± 5.1 % | – | about half | significantly enhanced |
